Laboratory results: paper PMC12475274, “Harnessing indole scaffolds to identify small-molecule IRE1α inhibitors modulating XBP1 mRNA splicing” (Nature Communications, 2025)
Where “and” joins values, the source holds several entries; their conditions need not be identical. Equal values may be shown once. Entries after “also recorded” stand apart in the source; their conditions may differ.

Key:
[1] = test system: IRE1α transcription level in HT-29 cells; experiment: RT-qPCR of IRE1α transcription level, HT-29; format: cell-based, human; conditions: HT-29 cells
Procedure: (§1) A549 cells, HCT 116 cells, and HT-29 cells were collected and seeded in 6-well plates at a density of 5 × 10^5 cells per well and cultured overnight to attach, then treated with compound or DMSO for 2 h, then 0.5 μg/mL final concentration of tunicamycin (Tm, MP Biomedi, 0215002805) were added to induce the ER stress for 2 h. After treatment, total RNA was purified using an RNeasy mini kit (Qiagen, 74106). 500 ng of total RNA was used for reverse transcription using the High-Capacity cDNA Reverse Transcription Kits (Thermo Fisher, 4368814). cDNA was diluted 1: 5 using RNase-free water, and 1 μL CDNA was used for each qPCR reaction. The qPCR was performed using PowerUp™ SYBR™ Green Master Mix (Thermo Fisher, A25742) with 10 µL reaction volume using Bio-Rad CFX96 Real-Time PCR Detection System following the standard cycling mode (primer Tm ≥ 60 °C) on the manufacturer’s protocol. Data was analyzed using the 2^- ΔΔCt method. The primers used are listed in Supplementary Table S3. The inhibition % was calculated by using the equation: inhibition% = 100× (normalized Tm control - normalized of the sample)/(normalized Tm control - normalized DMSO control). Tm control: Cells treated with tunicamycin; DMSO control: Cells treated with DMSO only.

[2] = test system: XBP1 mRNA splicing in HT-29 cells; experiment: RT-qPCR of ER stress-induced XBP1 mRNA splicing, HT-29; format: cell-based, human; conditions: HT-29 cells
Procedure: as §1

[3] = test system: IRE1α transcription level in HCT 116 cells; experiment: RT-qPCR of IRE1α transcription level, HCT 116; format: cell-based, human; conditions: HCT 116 cells
Procedure: as §1

IRE1β (ERN2) = IRE1β (ERN2) (Homo sapiens, UniProt Q76MJ5); experiment: LanthaScreen Eu kinase binding assay, IRE1β
Chain of IRE1β (ERN2) (Q76MJ5 35-926): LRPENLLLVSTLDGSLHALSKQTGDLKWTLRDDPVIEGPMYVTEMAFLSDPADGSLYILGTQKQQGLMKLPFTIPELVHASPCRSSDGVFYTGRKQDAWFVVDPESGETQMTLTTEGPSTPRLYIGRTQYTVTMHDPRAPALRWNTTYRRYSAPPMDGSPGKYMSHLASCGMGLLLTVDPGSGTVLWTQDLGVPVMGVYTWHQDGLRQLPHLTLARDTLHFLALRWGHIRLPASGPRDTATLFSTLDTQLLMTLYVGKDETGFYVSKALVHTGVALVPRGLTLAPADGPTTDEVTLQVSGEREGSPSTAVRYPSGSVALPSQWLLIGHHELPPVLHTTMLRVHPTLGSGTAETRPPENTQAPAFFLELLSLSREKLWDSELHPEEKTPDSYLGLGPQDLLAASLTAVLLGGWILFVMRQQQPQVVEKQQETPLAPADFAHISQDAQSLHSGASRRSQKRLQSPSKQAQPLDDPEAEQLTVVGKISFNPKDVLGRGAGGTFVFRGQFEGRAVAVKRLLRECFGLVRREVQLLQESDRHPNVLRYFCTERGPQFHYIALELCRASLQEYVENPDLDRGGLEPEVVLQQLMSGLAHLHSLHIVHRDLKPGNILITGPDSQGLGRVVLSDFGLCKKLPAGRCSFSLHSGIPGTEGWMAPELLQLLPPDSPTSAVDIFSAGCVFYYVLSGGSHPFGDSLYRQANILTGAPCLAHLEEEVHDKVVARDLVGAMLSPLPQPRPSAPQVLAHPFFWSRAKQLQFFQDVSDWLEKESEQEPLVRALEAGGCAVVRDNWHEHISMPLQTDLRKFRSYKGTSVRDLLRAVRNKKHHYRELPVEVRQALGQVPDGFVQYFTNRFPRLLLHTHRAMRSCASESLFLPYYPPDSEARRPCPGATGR
Procedure: LanthaScreen^TM Eu kinase binding assays were conducted by SelectScreen Kinase Profiling Services (Thermo Fisher) using Alexa Fluor conjugated kinase tracer, tagged kinase protein, and Eu-labeled anti-tag antibody. The binding of the tracer to the kinase will form the tracer-kinase complex, resulting in a high FRET signal with the Eu-labeled anti-tag antibody. Displacement of the tracer by a kinase inhibitor led to a decreased FRET signal. […] Buffer A containing 50 mM HEPES pH 7.5, 0.01% BRIJ-35, 10 mM MgCl2, and 1 mM EGTA was used.
Kinase profiling was conducted by the SelectScreen Kinase Profiling Services (Thermo Fisher), using Z′-LYTE, Adapta, or LanthaScreen Eu Kinase Binding Assay for different kinases. The kinome phylogenetic tree was generated using the KinMap web portal.

dephosphorylated IRE1α = target: T1, dephosphorylated IRE1α (Homo sapiens, UniProt O75460); experiment: Microscale thermophoresis (MST), IRE1α; format: binding
T1 construct: Human IRE1α kinase and RNase domain (residues 547–977) was subcloned into pLIB plasmid; His tag (with TEV cleavage site) (N, cleaved yes); made in house; host or cells: Sf9 insect cells, baculovirus (Bac-to-Bac)
T1 sequence (O75460 547-977): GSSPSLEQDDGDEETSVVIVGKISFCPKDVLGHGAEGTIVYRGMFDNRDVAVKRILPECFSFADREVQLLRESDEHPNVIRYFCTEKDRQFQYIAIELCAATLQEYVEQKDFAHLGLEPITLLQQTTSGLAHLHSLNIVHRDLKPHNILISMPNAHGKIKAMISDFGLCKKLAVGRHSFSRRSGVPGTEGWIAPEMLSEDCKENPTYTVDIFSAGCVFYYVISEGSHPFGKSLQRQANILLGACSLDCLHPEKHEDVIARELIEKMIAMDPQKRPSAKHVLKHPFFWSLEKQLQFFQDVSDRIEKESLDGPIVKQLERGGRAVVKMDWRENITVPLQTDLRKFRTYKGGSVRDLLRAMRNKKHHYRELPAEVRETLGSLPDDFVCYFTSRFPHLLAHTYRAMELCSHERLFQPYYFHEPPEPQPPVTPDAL
Procedure: (§2) Dephosphorylated IRE1α protein and phosphorylated IRE1α protein were labeled and purified using Protein Labeling Kit RED-NHS 2nd Generation (NanoTemper, MO-L011), following the manufacturer’s protocol. The labeling buffer contained 50 mM HEPES, pH 7.5, 200 mM NaCl, 2% glycerol, 0.5 mM TCEP, 0.05% tween20. MST experiments were performed using the Monolith Nt.115 instrument (NanoTemper), and binding experiments were conducted according to the instrument’s instructions. Compounds were serially diluted 2-fold and incubated with labeled IRE1α protein at a final concentration of 20 nM. The highest compound concentration measured was 250 μM with a final DMSO concentration of 2.5%. Measurements were carried out using the red detector with 60% excitation power. Data were analyzed using the manufacturer’s software, and results from three individual measurements were merged for analysis.

IRE1α = target: T2, IRE1α (Homo sapiens, UniProt O75460); experiment: Michaelis–Menten kinetic analysis with XBP1 RNA substrate; format: biochemical
T2 construct: Human IRE1α kinase and RNase domain (residues 547–977) was subcloned into pLIB plasmid; His tag (with TEV cleavage site) (N, cleaved yes); made in house; host or cells: Sf9 insect cells, baculovirus (Bac-to-Bac)
T2 sequence (O75460 547-977): as above
Procedure: I/s (fluorescence intensity/second), 7.98 FL. I/s, 2.33 FL. I/s and 0.9 FL. I/s, respectively.
The dual-labeled RNA substrate with a FAM at 5’ and the BHQ-1 at 3’ containing the XBP1 sequence (5′FAM-[…]-3′BHQ1) was purchased from Integrated DNA Technologies (IDT). The FRET-based IRE1α RNase activity assay was carried out in reaction buffer containing 20 mM HEPES pH 7.5, 50 mM KOAc, 1 mM MgOAc2, 1 mM DTT, 0.05% v/v TritonX-100, at a total reaction volume of 20 μL in a 384-well black plate (4514, Corning). […] […] The indicated compound and IRE1α protein were incubated for 30 min at room temperature before the substrate was added to the reaction. The plate was then kinetically read over one hour at room temperature using a TECAN Spark plate reader. The measurement was carried out using the fluorescence top reading mode at the excitation wavelength of 485 nm and the emission wavelength of 535 nm with a 10 nm excitation and emission bandwidth. The linear part of the reaction curve was adopted and fitted with sample linear regression to obtain the slope, and the slope was adopted to reflect the reaction rate. The inhibition % was calculated by using the equation: inhibition% = 100 × (slope of DMSO control – slope of the sample)/(slope of DMSO control – slope of blank control), DMSO control: DMSO with protein and RNA substrate; Blank control: DMSO with RNA substrate. The IC50 values were calculated using the concentration-response model in GraphPad Prism 9.

phosphorylated IRE1α = target: T3, phosphorylated IRE1α (Homo sapiens, UniProt O75460); experiment: Microscale thermophoresis (MST), p-IRE1α; format: binding
T3 construct: Human IRE1α kinase and RNase domain (residues 547–977) was subcloned into pLIB plasmid; His tag (with TEV cleavage site) (N, cleaved yes); made in house; host or cells: Sf9 insect cells, baculovirus (Bac-to-Bac)
T3 sequence (O75460 547-977): as above
Procedure: as §2

| IC50 ([2]; Homo sapiens) | Compound | effect on IRE1α transcription level [1] | inhibition of ER stress-induced XBP1 mRNA splicing [2] | effect on IRE1α transcription level [3] | IRE1β Kinase Displacement(%) (IRE1β (ERN2); 16700 μM as printed) | IC50 (IRE1β (ERN2); LanthaScreen Eu kinase binding assay, read-out: IRE1β (ERN2) kinase domain IC50) | selectivity for IRE1α over IRE1β (IRE1β (ERN2); kinase binding IC50s) | inhibition at 5 µM (IRE1β (ERN2); kinase profiling, ERN2, LanthaScreen Binding, IA107 at 5 μM) | Kd (dephosphorylated IRE1α) | inhibition mechanism towards the XBP1 mRNA substrate (IRE1α) | Vmax (IRE1α; 0.01 μM IA107) | Vmax (IRE1α; 0.1 μM IA107) | Vmax (IRE1α; 1 μM IA107) | IRE1a Velocity (IRE1α; RNA 5000 nM, IA107 0.01 μM) | IRE1a Velocity (IRE1α; RNA 5000 nM, IA107 0.1 μM) | IRE1a Velocity (IRE1α; RNA 5000 nM, IA107 1 μM) | IRE1a Velocity (IRE1α; RNA 10000 nM, IA107 0.01 μM) | IRE1a Velocity (IRE1α; RNA 10000 nM, IA107 0.1 μM) | IRE1a Velocity (IRE1α; RNA 10000 nM, IA107 1 μM) | Kd (phosphorylated IRE1α) |
| --- | --- | --- | --- | --- | --- | --- | --- | --- | --- | --- | --- | --- | --- | --- | --- | --- | --- | --- | --- | --- |
| 0.16 µM | CCOC(=O)CCc1c(C)n(C(=O)c2ccccc2)c2ccc(Br)cc12 [IAPD1] | did not influence; also recorded: no obvious impact | inhibited | did not influence; also recorded: no obvious impact | – | – | – | – | – | – | – | – | – | – | – | – | – | – | – | – |
| – | Cc1c(CCC(=O)O)c2cc(Br)ccc2n1C(=O)c1ccccc1 [IA107] | – | – | – | 87.04% and 84.54% | 1.44 µM | 2 fold | 70% | 1.36 µM | non-competitive | 7.98 FL. I/s | 2.33 FL. I/s | 0.9 FL. I/s | 7.329 FL.I/s and 6.249 FL.I/s | 1.807 FL.I/s and 2.323 FL.I/s | 0.681 FL.I/s and 0.661 FL.I/s | 7.224 FL.I/s and 6.354 FL.I/s | 1.848 FL.I/s and 1.988 FL.I/s | 0.902 FL.I/s and 0.839 FL.I/s | 0.152 µM |
